Measured values from PubChem BioAssay (NCI).
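A five-concentration, 48-hour dose response in 96-well plates underlies each endpoint, interpolated linearly between surrounding concentrations. At the GI50, growth is halved. TGI is the concentration that stops growth completely.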 Where a SMILES comes first, the peptide text is derived from it. The star is where a group is joined. Fmoc = O=C(OCC1c2ccccc2-c2ccccc21)*; OBn = c1ccc(CO*)cc1; tBu = CC(C)(C)*

Assays:
Assay in all cases: NCI-60 cell line screen, 48 h
UACC-257 melanoma = tested on: UACC-257 melanoma
PC-3 prostate = tested on: PC-3 prostate
SNB-19 CNS = tested on: SNB-19 CNS
UACC-62 melanoma = tested on: UACC-62 melanoma
HOP-92 NSCLC = tested on: HOP-92 NSCLC
RPMI-8226 leukemia = tested on: RPMI-8226 leukemia
OVCAR-8 ovarian = tested on: OVCAR-8 ovarian
NCI-H226 lung = tested on: NCI-H226 lung
HL-60(TB) leukemia = tested on: HL-60(TB) leukemia
SF-295 CNS = tested on: SF-295 CNS

SMILES | TGI (UACC-257 melanoma) [µM] | TGI (PC-3 prostate) [µM] | TGI (SNB-19 CNS) [µM] | TGI (UACC-62 melanoma) [µM] | TGI (HOP-92 NSCLC) [µM] | TGI (RPMI-8226 leukemia) [µM] | TGI (OVCAR-8 ovarian) [µM] | TGI (NCI-H226 lung) [µM] | TGI (HL-60(TB) leukemia) [µM] | TGI (SF-295 CNS) [µM] | GI50 (UACC-257 melanoma) [µM] | GI50 (PC-3 prostate) [µM] | GI50 (SNB-19 CNS) [µM] | GI50 (UACC-62 melanoma) [µM] | GI50 (HOP-92 NSCLC) [µM] | GI50 (RPMI-8226 leukemia) [µM] | GI50 (OVCAR-8 ovarian) [µM] | GI50 (NCI-H226 lung) [µM] | GI50 (HL-60(TB) leukemia) [µM] | GI50 (SF-295 CNS) [µM]
CC(=O)N1CN2C(=O)CCC2c2cc(C)ccc21 (stereo not given) | > 100 | > 100 | > 100 | > 100 | > 100 | > 100 | > 100 | > 100 | > 100 | > 100 |  |  |  |  |  |  |  |  |  | 
CC(OC(C)(C)C)C(NC(=O)OCC1c2ccccc2-c2ccccc21)C(=O)NC(Cc1ccccc1)C(=O)OCc1ccccc1 (stereo not given) (Fmoc-Thr(tBu)-Phe-OBn; configuration not given here) | > 100 | > 100 | > 100 | > 100 | > 100 | > 100 | > 100 | > 100 | > 100 | > 100 |  |  |  |  |  |  |  |  |  | 
CCOC1OC(C)(C=C(C#N)C#N)CCC1C (stereo not given) | > 100 | > 100 | > 100 | > 100 | > 100 | 70.6 | > 68 | 55.2 | 80.4 | > 100 |  |  |  |  |  |  |  |  |  | 
COc1cc(/C=C2\C(=O)N(c3ccc(Cl)cc3)C(c3ccccc3)S2(=O)=O)cc(OC)c1OC (stereo not given) | > 100 | > 100 | > 100 | > 63.6 | > 100 | > 100 | > 100 | > 100 | > 100 | > 100 |  |  |  |  |  |  |  |  |  | 
Nc1ncnc2c1ncn2CCCNO | > 100 | > 100 | > 100 | > 100 | > 100 | > 100 | > 100 | > 100 | > 100 | > 100 |  |  |  |  |  |  |  |  |  | 
N=C(N)c1ccc(N=Nc2c(O)c(C(=O)Nc3ccccc3)cc3ccccc23)cc1 | > 100 | > 89.2 | 51.5 | > 100 | 33.8 | 77.7 | 34.5 | > 100 | 55.1 | > 100 |  |  |  |  |  |  |  |  |  | 
CCOC(=O)NC(Nc1ccc(C(=O)O)cc1)(C(F)(F)F)C(F)(F)F | > 100 | > 100 | > 100 | > 100 | > 100 | > 100 | > 100 | > 100 | > 100 | > 100 |  |  |  |  |  |  |  |  |  | 
CC(C)NC(=O)OCCN=C1c2ccccc2C(Br)C(Br)c2ccccc21 (stereo not given) | 35.8 | > 48.8 | 43.3 | 31.1 | 17 | 23.1 | 24.8 | 33.2 | 2.6 | 42 |  |  |  |  |  |  |  |  |  | 
N#Cc1cc2c(n(C3OC(CO)C(O)C(O)C3O)c1=S)CCC2 (stereo not given) | > 100 | > 100 | > 100 | > 100 | > 100 | > 100 | > 100 | > 100 | > 100 | > 100 |  |  |  |  |  |  |  |  |  | 
CCOC(=O)CCC(C(=O)OCC)n1nnc2cc(Nc3c(C)[n+]([O-])c4cc(Cl)ccc4[n+]3[O-])ccc21 (stereo not given) | > 100 | > 100 | > 100 | > 100 | > 100 | > 100 | > 100 | > 100 | > 100 | > 100 |  |  |  |  |  |  |  |  |  | 
C=C(C)C1CCC2(C)C1CCC1(C)C2CCC2C3(C)C4OC(OC4=O)C(C)(C)C3CCC21C (stereo not given) | > 100 | > 100 | > 100 | > 100 | > 100 | > 100 | > 100 | > 100 | 80.1 | > 100 |  |  |  |  |  |  |  |  |  | 
Oc1ccccc1/C=N/c1nc(-c2ccccc2)cs1 | > 100 | > 100 | > 100 | > 100 | > 100 | > 100 | > 100 | > 100 | > 100 | > 100 | 44.3 | 53.7 | > 100 | 34.5 | 8.22 | 27.5 | 42.9 | 35.1 | 36 | > 100
O=[N+]([O-])/C=C/c1cn(CCCCCCCCn2cc(/C=C/[N+](=O)[O-])c3ccccc32)c2ccccc12 | > 10 | > 10 | > 10 | > 10 | > 10 | 1.11 | > 10 | > 10 | > 10 | > 10 |  |  |  |  |  |  |  |  |  | 
